Experimental data: patent publication US9938269B2, “Inhibitor compounds of phosphodiesterase type 10A” (ABBVIE INC., priority 2011, dated 2018)
Structures can show the parent of a compound that is named as a salt.

How the values were obtained:
[1] = Determination of the microsomal half-life, rat liver microsomes; conditions: for microsomal CLint at 0.5 μM: rat, liver microsomes, pH 7.4; for Rat mCl (mikrosomal clearance): rat liver microsomes, 0.5 μM test substance, 0.25 mg microsomal protein, pH 7.4, 37° C., NADPH
Method: The test substances were incubated in a concentration of 0.5 μM as follows:
0.5 μM test substance are preincubated together with liver microsomes from different species (from rat, human or other species) (0.25 mg of microsomal protein/10 in 0.05 M potassium phosphate buffer of pH 7.4 in microtiter plates at 37° C. for 5 min. The reaction is started by adding NADPH (1 mg/mL). After 0, 5, 10, 15, 20 and 30 min., 50 μl aliquots are removed, and the reaction is immediately stopped and cooled with the same volume of acetonitrile. The samples are frozen until analyzed. The remaining concentration of undegraded test substance is determined by MSMS. The half-life (T½) is determined from the gradient of the signal of test substance/unit time plot, it being possible to calculate the half-life of the test substance, assuming first order kinetics, from the decrease in the concentration of the compound with time. The microsomal clearance (mCl) is calculated from mCl=ln 2/T½/(content of microsomal protein in mg/ml)×1000 [ml/min/mg]

[2] = Determination of the microsomal half-life, human liver microsomes; conditions: for microsomal CLint at 0.5 μM: human, liver microsomes, pH 7.4; for Human mCl (mikrosomal clearance): human liver microsomes, 0.5 μM test substance, 0.25 mg microsomal protein, pH 7.4, 37° C., NADPH

Row | microsomal CLint at 0.5 μM [1] [µL/min/mg] | microsomal CLint at 0.5 μM [2] [µL/min/mg] | SMILES | Rat mCl (mikrosomal clearance) [1] | Human mCl (mikrosomal clearance) [2]
1 | < 100 | 100 to 220 | CN1CCN(C2CCN(c3cccc4c3C(=O)N(CCc3ccc5ccccc5n3)C4)CC2)CC1 [Example 100, 7-[4-(4-Methyl-piperazin-1-yl)-piperidin-1-yl]-2-(2-quinolin-2-yl-ethyl)-2,3-dihydro-isoindol-1-one trifluoroacetate] | – | –
2 | > 220 | < 100 | O=C1c2c(cccc2N2CC3CNCC3C2)CN1CCc1ccc2ccccc2n1 (centres unmarked) [Example 192, 7-(Hexahydro-pyrrolo[3,4-c]pyrrol-2-yl)-2-(2-quinolin-2-yl-ethyl)-2,3-dihydro-isoindol-1-one] | – | –
3 | 100 to 220 | > 220 | C=C(C)c1ccc(Oc2ccc(-c3cccc4c3C(=O)N(CCc3ccc5ccccc5n3)C4)cc2)cc1 [Example 146, 7-[4-(4-Isopropenyl-phenoxy)-phenyl]-2-(2-quinolin-2-yl-ethyl)-2,3-dihydro-isoindol-1-one] | – | –
4 | 100 to 220 | 100 to 220 | Cc1ccc(COc2cccc3c2C(=O)N(CCc2ccc4ccccc4n2)C3)cn1 [Example 172, 7-(6-Methyl-pyridin-3-ylmethoxy)-2-(2-quinolin-2-yl-ethyl)-2,3-dihydro-isoindol-1-one] | – | –
5 | 100 to 220 | < 100 | CN1CCN(c2cccc3c2CN(CCc2ccc4ccccc4n2)C3=O)CC1 [Example 144, 4-(4-Methyl-piperazin-1-yl)-2-(2-quinolin-2-yl-ethyl)-2,3-dihydro-isoindol-1-one] | – | –
6 | < 100 | < 100 | CN(C)CC1CN(c2cccc3c2C(=O)N(CCc2ccc4ccccc4n2)C3)CCO1 (centres unmarked) [Example 229, 7-(2-Dimethylaminomethyl-morpholin-4-yl)-2-(2-quinolin-2-yl-ethyl)-2,3-dihydro-isoindol-1-one trifluoroacetate] | – | –
7 | – | – | C[C@@H]1CN(c2cccc3c2C(=O)N(CCc2ccc4ccccc4n2)C3)CC[C@@H]1c1ccc(OC(F)(F)F)cc1F.O=C(O)C(F)(F)F [Example 147, 7-[(3S,4S)-4-(2-Fluoro-4-trifluoromethoxy-phenyl)-3-methyl-piperidin-1-yl]-2-(2-quinolin-2-yl-ethyl)-2,3-dihydro-isoindol-1-one trifluororacetate] | + (+: 100-220 μl min^−1 mg^−1) | ∘ (∘ not avialable or >220 μl min^−1 mg^−1)
8 | < 100 | < 100 | COc1ccc(N2CCN(C3CCN(C)CC3)CC2)c2c1CN(CCc1ccc3ccccc3n1)C2=O [Example 269, 4-Methoxy-7-[4-(1-methyl-piperidin-4-yl)-piperazin-1-yl]-2-(2-quinolin-2-yl-ethyl)-2,3-dihydro-isoindol-1-one di-trifluoroacetate] | – | –
9 | < 100 | < 100 | CN1CCN(c2ccnc3c2C(=O)N(CCc2nc4ccccc4n2C)C3)CC1 [Example 226, 6-[2-(1-Methyl-1H-benzoimidazol-2-yl)-ethyl]-4-(4-methyl-piperazin-1-yl)-6,7-dihydro-pyrrolo[3,4-b]pyridin-5-one trifluoroacetate] | – | –
10 | 100 to 220 | < 100 | Cc1nc(CCN2Cc3nccc(-c4ccncc4)c3C2=O)sc1C [compound 408, 6-[2-(4,5-Dimethylthiazol-2-yl)ethyl]-4-(4-pyridyl)-7H-pyrrolo[3,4-b]pyridin-5-one] | – | –
11 | < 100 | < 100 | O=C1c2c(-c3ccncc3)ccnc2CN1CCc1cc2ccccc2o1 [compound 391, 6-[2-(Benzofuran-2-yl)ethyl]-4-(4-pyridyl)-7H-pyrrolo[3,4-b]pyridin-5-one] | – | –
12 | < 100 | < 100 | O=C1c2c(cccc2N2CCS(=O)(=O)CC2)CN1CCc1nc2ccccn2n1 [Example 232, 7-(1,1-Dioxothiomorpholin-4-yl)-2-(2-[1,2,4]triazolo[1,5-a]pyridin-2-yl-ethyl)-2,3-dihydro-isoindol-1-one] | – | –
13 | < 100 | > 220 | CCN1CCN(C2CCN(c3cccc4c3C(=O)N(CCc3ccc5ccccc5n3)C4)CC2)CC1 [Example 157, 7-[4-(4-Ethyl-piperazin-1-yl)-piperidin-1-yl]-2-(2-quinolin-2-yl-ethyl)-2,3-dihydro-isoindol-1-one trifluoroacetate] | – | –
14 | 100 to 220 | < 100 | CC1CCN(c2cccc3c2C(=O)N(CCc2ccc4ccccc4n2)C3)CC1N (centres unmarked) [Example 174, 7-(3-Amino-4-methyl-piperidin-1-yl)-2-(2-quinolin-2-yl-ethyl)-2,3-dihydro-isoindol-1-one] | – | –
15 | < 100 | < 100 | O=C1c2c(cccc2N2CCOCC2)CN1CCc1nc2ccccn2n1 [Example 231, 7-Morpholin-4-yl-2-(2-[1,2,4]triazolo[1,5-a]pyridin-2-yl-ethyl)-2,3-dihydro-isoindol-1-one] | – | –
16 | < 100 | < 100 | CN1CCN(c2ccnc3c2C(=O)N(CCc2cn4ccccc4n2)C3)CC1 [Example 273, 6-(2-Imidazo[1,2-a]pyridin-2-yl-ethyl)-4-(4-methyl-piperazin-1-yl)-6,7-dihydro-pyrrolo[3,4-b]pyridin-5-one] | – | –

Row | microsomal CLint at 0.5 μM [1] [µL/min/mg] | microsomal CLint at 0.5 μM [2] [µL/min/mg] | SMILES | Rat mCl (mikrosomal clearance) [1] | Human mCl (mikrosomal clearance) [2]
17 | < 100 | < 100 | CN1CCN(c2cccc3c2C(=O)N(CCc2nc4ccccn4n2)C3)CC1 [Example 233, 7-(4-Methyl-piperazin-1-yl)-2-(2-[1,2,4]triazolo[1,5-a]pyridin-2-yl-ethyl)-2,3-dihydro-isoindol-1-one] | – | –
18 | < 100 | < 100 | Cn1c(CCN2Cc3nccc(NC4COC4)c3C2=O)nc2ccccc21 [Example 359, 6-[2-(1-Methyl-1H-benzoimidazol-2-yl)-ethyl]-4-(oxetan-3-ylamino)-6,7-dihydro-pyrrolo[3,4-b]pyridin-5-one] | – | –
19 | < 100 | < 100 | CN1CCN(Cc2cccc3c2C(=O)N(CCc2ccc4ccccc4n2)C3)CC1 [Example 177, 7-(4-Methyl-piperazin-1-ylmethyl)-2-(2-quinolin-2-yl-ethyl)-2,3-dihydro-isoindol-1-one] | – | –
20 | 100 to 220 | > 220 | O=C1c2c(cccc2N2CCN(c3cccnc3)CC2)CN1CCc1ccc2ccccc2n1 [Example 159, 7-(4-Pyridin-3-yl-piperazin-1-yl)-2-(2-quinolin-2-yl-ethyl)-2,3-dihydro-isoindol-1-one trifluoroacetate] | – | –
21 | 100 to 220 | 100 to 220 | COc1ccc(-c2cccc3c2C(=O)N(CCc2cn4ccccc4n2)C3)cc1 [Example 237, 2-(2-Imidazo[1,2-a]pyridin-2-yl-ethyl)-7-(4-methoxy-phenyl)-2,3-dihydro-isoindol-1-one] | – | –
22 | – | – | O=C1c2c(cccc2-c2ccncc2)CN1CCc1ccnc(-c2ccccc2)n1 [Example 122, (2-(2-Phenylpyrimidin-4-yl)ethyl)-7-(pyridin-4-yl)isoindolin-1-one] | + (+: 100-220 μl min^−1 mg^−1) | ++ (++: 100 μl min^−1 mg^−1)
23 | 100 to 220 | > 220 | CN1CCN(Cc2ccc(-c3cccc4c3C(=O)N(CCc3ccc5ccccc5n3)C4)cc2)CC1 [Example 167, 7-[4-(4-Methyl-piperazin-1-ylmethyl)-phenyl]-2-(2-quinolin-2-yl-ethyl)-2,3-dihydro-isoindol-1-one trifluoroacetate] | – | –
24 | 100 to 220 | > 220 | CC1(O)CCC(Nc2ccc(-c3cccc4c3C(=O)N(CCc3ccc5ccccc5n3)C4)cc2Cl)CC1 (centres unmarked) [Example 155, 7-[3-Chloro-4-(4-hydroxy-4-methyl-cyclohexylamino)-phenyl]-2-(2-quinolin-2-yl-ethyl)-2,3-dihydro-isoindol-1-one hydrochloride] | – | –
25 | < 100 | < 100 | O=C1c2c(NC3COC3)ccnc2CN1CCc1cn2ccccc2n1 [Example 360, 6-(2-Imidazo[1,2-a]pyridin-2-yl-ethyl)-4-(oxetan-3-ylamino)-6,7-dihydro-pyrrolo[3,4-b]pyridin-5-one] | – | –
26 | < 100 | 100 to 220 | O=C1c2c(cccc2OCc2ccccn2)CN1CCc1ccc2ccccc2n1 [Example 129, 7-(Pyridin-2-ylmethoxy)-2-(2-quinolin-2-yl-ethyl)-2,3-dihydro-isoindol-1-one] | – | –
27 | 100 to 220 | > 220 | CC1CN(c2cccc3c2C(=O)N(CCc2ccc4ccccc4n2)C3)CCO1 (centres unmarked) [Example 228, 7-(2-Methyl-morpholin-4-yl)-2-(2-quinolin-2-yl-ethyl)-2,3-dihydro-isoindol-1-one trifluoroacetate] | – | –
28 | < 100 | < 100 | COc1ccc(NC2COC2)c2c1CN(CCc1cn3ccccc3n1)C2=O [Example 362, 2-(2-Imidazo[1,2-a]pyridin-2-yl-ethyl)-4-methoxy-7-(oxetan-3-ylamino)-2,3-dihydro-isoindol-1-one] | – | –
29 | < 100 | < 100 | O=C1c2c(-c3cccnc3)ccnc2CN1CCc1cn2ccccc2n1 [Example 358, 6-(2-Imidazo[1,2-a]pyridin-2-yl-ethyl)-4-pyridin-3-yl-6,7-dihydro-pyrrolo[3,4-b]pyridin-5-one] | – | –
30 | 100 to 220 | 100 to 220 | COCC1CN(c2cccc3c2C(=O)N(CCc2ccc4ccccc4n2)C3)CCO1 (centres unmarked) [Example 298, 7-(2-Methoxymethyl-morpholin-4-yl)-2-(2-quinolin-2-yl-ethyl)-2,3-dihydro-isoindol-1-one] | – | –
31 | < 100 | < 100 | CN1CCN(c2cccc3c2C(=O)N(CCc2nc4ccccc4n2C)C3)CC1 [Example 254, 2-[2-(1-Methyl-1H-benzoimidazol-2-yl)-ethyl]-7-(4-methyl-piperazin-1-yl)-2,3-dihydro-isoindol-1-one] | – | –
